What all share (format): biochemical
One assay deals with T1, HDAC1 (Homo sapiens, UniProt Q13547).
T1 construct: purchased BPS Bioscience
Kind of assay: HDAC1 enzymatic activity assay (dose-response, Boc-Lys(Ac)-AMC). The note with it: 40 nM HDAC1, 50 µM Boc-Lys(Ac)-AMC; triplicate, mean ± SD. How it is done: (§1) Enzymatic activity assays for compound screening and dose–response analysis were performed as previously described. In brief, compounds were screened at 35 µM using 1 nM HDAC4 and 10 nM HDAC8, respectively. For dose–response curves, serial inhibitor dilutions were incubated with 40 nM HDAC1 (BPS Bioscience, San Diego, CA, USA), 1 nM HDAC4, or 10 nM HDAC8. Reactions were initiated with 20 µM Boc-Lys(Tfa)-AMC (HDAC4/8) or 50 µM Boc-Lys(Ac)-AMC (HDAC1) and terminated with 0.4 mg/mL trypsin (Roth, Karlsruhe, Germany) and 1.7 µM SATFMK (HDAC4/8) or 4.2 µM SAHA (HDAC1). All IC50 determinations were performed in triplicate, and the results are expressed as mean values ± standard deviation (SD). HDAC4 and HDAC8 were produced according to previously reported protocols. HDAC1 was purchased from BPS Bioscience (San Diego, CA, USA). Boc-Lys(Tfa)-AMC and trypsin were purchased from Bachem (Bubendorf, Switzerland) and AppliChem (Darmstadt, Germany), respectively.

Another assay has as its target T2, HDAC4 (Homo sapiens, UniProt P56524).
T2 construct: made in house
Kind of assay: HDAC4 enzymatic activity assay (dose-response, Boc-Lys(Tfa)-AMC). The conditions noted are these: 1 nM HDAC4, 20 µM Boc-Lys(Tfa)-AMC; triplicate, mean ± SD. As to the method:
as §1, with “In brief, compounds were screened at 35 µM using 1 nM HDAC4 and 10 nM HDAC8, respectively.” left out, “Reactions were initiated with 20 µM Boc-Lys(Tfa)-AMC (HDAC4/8) or 50 µM Boc-Lys(Ac)-AMC (HDAC1) and terminated with 0.4 mg/mL trypsin (Roth, Karlsruhe, Germany) and 1.7 µM SATFMK (HDAC4/8) or 4.2 µM SAHA (HDAC1).” left out

Another assay concerns the target T3, HDAC8 (Homo sapiens, UniProt Q9BY41).
T3 construct: made in house
T3 sequence (Q9BY41 1-377): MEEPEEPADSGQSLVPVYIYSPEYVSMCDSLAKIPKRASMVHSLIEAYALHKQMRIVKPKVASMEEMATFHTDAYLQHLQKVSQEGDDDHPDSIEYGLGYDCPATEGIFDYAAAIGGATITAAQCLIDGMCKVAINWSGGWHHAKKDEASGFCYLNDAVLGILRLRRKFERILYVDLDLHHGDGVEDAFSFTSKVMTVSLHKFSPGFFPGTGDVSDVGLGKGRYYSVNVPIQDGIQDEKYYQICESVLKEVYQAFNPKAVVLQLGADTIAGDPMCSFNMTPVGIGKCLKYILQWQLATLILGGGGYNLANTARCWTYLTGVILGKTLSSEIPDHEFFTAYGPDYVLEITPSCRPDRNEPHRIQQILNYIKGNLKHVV
Kind of assay: HDAC8 enzymatic activity assay (dose-response, Boc-Lys(Tfa)-AMC). The note with it: 10 nM HDAC8, 20 µM Boc-Lys(Tfa)-AMC; triplicate, mean ± SD. As to the method: as §1, with “In brief, compounds were screened at 35 µM using 1 nM HDAC4 and 10 nM HDAC8, respectively.” left out, “Reactions were initiated with 20 µM Boc-Lys(Tfa)-AMC (HDAC4/8) or 50 µM Boc-Lys(Ac)-AMC (HDAC1) and terminated with 0.4 mg/mL trypsin (Roth, Karlsruhe, Germany) and 1.7 µM SATFMK (HDAC4/8) or 4.2 µM SAHA (HDAC1).” left out

T1 sequence (Q13547 whole entry): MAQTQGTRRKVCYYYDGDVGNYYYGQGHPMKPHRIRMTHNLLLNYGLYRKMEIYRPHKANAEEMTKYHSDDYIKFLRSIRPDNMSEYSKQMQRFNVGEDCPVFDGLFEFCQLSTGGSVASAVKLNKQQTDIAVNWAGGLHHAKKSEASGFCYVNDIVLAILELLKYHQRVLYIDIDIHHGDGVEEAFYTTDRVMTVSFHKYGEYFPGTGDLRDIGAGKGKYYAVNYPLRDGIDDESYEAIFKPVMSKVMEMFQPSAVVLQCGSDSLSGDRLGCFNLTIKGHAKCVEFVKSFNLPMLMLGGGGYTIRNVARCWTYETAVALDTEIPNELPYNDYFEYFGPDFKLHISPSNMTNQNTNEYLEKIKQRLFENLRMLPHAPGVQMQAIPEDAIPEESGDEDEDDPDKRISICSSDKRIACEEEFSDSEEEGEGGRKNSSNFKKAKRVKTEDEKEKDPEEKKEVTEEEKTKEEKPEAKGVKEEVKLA
T2 sequence (P56524 whole entry): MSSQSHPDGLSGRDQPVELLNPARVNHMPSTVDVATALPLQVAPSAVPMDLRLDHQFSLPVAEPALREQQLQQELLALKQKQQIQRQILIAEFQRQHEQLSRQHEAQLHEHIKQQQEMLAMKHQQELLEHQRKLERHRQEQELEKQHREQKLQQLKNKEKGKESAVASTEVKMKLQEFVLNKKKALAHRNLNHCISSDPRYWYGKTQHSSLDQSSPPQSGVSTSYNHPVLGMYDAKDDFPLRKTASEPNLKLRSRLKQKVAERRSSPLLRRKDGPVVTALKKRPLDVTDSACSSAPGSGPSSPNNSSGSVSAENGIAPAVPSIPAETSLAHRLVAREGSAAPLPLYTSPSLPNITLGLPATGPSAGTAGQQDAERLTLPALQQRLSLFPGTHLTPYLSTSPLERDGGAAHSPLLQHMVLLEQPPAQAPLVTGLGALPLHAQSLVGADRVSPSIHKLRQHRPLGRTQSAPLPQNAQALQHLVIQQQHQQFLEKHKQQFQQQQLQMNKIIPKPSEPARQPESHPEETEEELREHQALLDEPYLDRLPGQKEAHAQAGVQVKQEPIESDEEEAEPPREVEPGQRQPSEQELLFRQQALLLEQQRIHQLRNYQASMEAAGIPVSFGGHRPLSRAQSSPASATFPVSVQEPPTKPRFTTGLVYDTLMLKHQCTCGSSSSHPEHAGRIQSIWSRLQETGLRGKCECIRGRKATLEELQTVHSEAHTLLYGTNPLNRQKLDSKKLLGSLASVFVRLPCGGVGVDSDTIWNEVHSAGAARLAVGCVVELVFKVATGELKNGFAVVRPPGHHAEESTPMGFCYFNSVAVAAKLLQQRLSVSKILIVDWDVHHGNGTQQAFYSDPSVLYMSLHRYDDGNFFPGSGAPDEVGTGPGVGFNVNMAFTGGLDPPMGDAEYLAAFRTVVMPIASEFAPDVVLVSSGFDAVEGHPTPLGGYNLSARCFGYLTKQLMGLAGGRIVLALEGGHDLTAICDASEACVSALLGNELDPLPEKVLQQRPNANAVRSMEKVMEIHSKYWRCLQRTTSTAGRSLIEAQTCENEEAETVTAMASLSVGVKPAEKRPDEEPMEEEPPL

As to `O=C(NO)c1ccc(B2Nc3ccccc3N2)cc1` [Compound 35], the concentration for half-maximal inhibition (IC50) at HDAC1, against HDAC4 and on HDAC8 was greater than 35 µM each time.

Turning to `O=C(NO)c1cccc(B2Nc3ccccc3N2)c1` [Compound 30], the figures for the IC50 against HDAC1, at HDAC4 and at HDAC8 were 0.975 ± 0.394 µM, 1.35 ± 0.18 µM and 0.2 ± 0.02 µM, respectively.

Regarding `Nc1cc(F)ccc1NC(=O)c1cccc(B2Nc3ccccc3N2)c1` [Compound 32], the concentration for half-maximal inhibition (IC50) at HDAC1, against HDAC4 and against HDAC8 was greater than 35 µM in each case.

On to `O=C(CCCCCCNCB1C=Cc2ccccc2N1)NO` [Compound 24], for which the figures for the IC50 against HDAC1, against HDAC4 and against HDAC8 were 9.3 ± 2.3 µM, greater than 35 µM and greater than 35 µM, respectively.

Consider `O=C(CCCC(=O)OCB1C=Cc2ccccc2N1)NO` [Compound 19], for which the IC50 against HDAC1, at HDAC4 and against HDAC8 was greater than 35 µM in each case.

For `Nc1cc(F)ccc1NC(=O)c1cccc(C(=O)OCB2C=Cc3ccccc3N2)c1` [Compound 20], the half-maximal inhibitory concentration (IC50) against HDAC1, against HDAC4 and against HDAC8 was greater than 35 µM in each case.

For the compound `Nc1ccccc1NC(=O)c1cccc(C(=O)OCB2C=Cc3ccccc3N2)c1` [Compound 21], the IC50 on HDAC1, on HDAC4 and on HDAC8 was greater than 35 µM each time.

Turning to `O=C(NO)c1cccc(CNCB2C=Cc3ccccc3N2)c1` [Compound 27], the IC50 against HDAC1, against HDAC4 and on HDAC8 was greater than 35 µM in each case.

As to `Nc1ccccc1NC(=O)c1cccc(B2Nc3ccccc3N2)c1` [Compound 31], the concentration for half-maximal inhibition (IC50) on HDAC1, on HDAC4 and against HDAC8 was greater than 35 µM each time.

As to `O=C(/C=C/c1ccc(C(=O)NO)cc1)OCB1C=Cc2ccccc2N1` [Compound 18], the IC50 was 8.2 ± 1.8 µM on HDAC1, greater than 35 µM on HDAC4 and 0.52 ± 0.11 µM against HDAC8.

As to `O=C(CCCCc1cn(CB2C=Cc3ccccc3N2)nn1)NO` [Compound 12], the IC50 was greater than 35 µM against HDAC1, 13.8 ± 4.3 µM against HDAC4 and 6.2 ± 3.4 µM on HDAC8.

Turning to `Nc1ccccc1NC(=O)c1cn(CB2C=Cc3ccccc3N2)nn1` [Compound 9], the half-inhibitory concentration (IC50) on HDAC1 was greater than 35 µM; against HDAC4, 16.8 ± 1.6 µM; on HDAC8 it was 20 ± 3 µM.

As for `O=C(NO)c1cccc(C(=O)OCB2C=Cc3ccccc3N2)c1` [Compound 23], the IC50 on HDAC1 was 1.88 ± 0.11 µM; on HDAC4, 7.3 ± 1.7 µM; against HDAC8 it was 0.44 ± 0.07 µM.

`O=C(CCc1cn(CB2C=Cc3ccccc3N2)nn1)NO` [Compound 11]: the IC50 against HDAC1, against HDAC4 and on HDAC8 was greater than 35 µM each time.

Turning to `Nc1ccccc1NC(=O)CCCCc1cn(CB2C=Cc3ccccc3N2)nn1` [Compound 8], the concentration for half-maximal inhibition (IC50) against HDAC1, against HDAC4 and at HDAC8 was greater than 35 µM throughout.

In the case of `Nc1cc(F)ccc1NC(=O)CCc1cn(CB2C=Cc3ccccc3N2)nn1` [Compound 14], the half-inhibitory concentration (IC50) on HDAC1, against HDAC4 and against HDAC8 was greater than 35 µM each time.

For `Nc1cc(F)ccc1NC(=O)CCCCc1cn(CB2C=Cc3ccccc3N2)nn1` [Compound 15], the half-inhibitory concentration (IC50) on HDAC1, against HDAC4 and against HDAC8 was greater than 35 µM throughout.

As to `Nc1ccccc1NC(=O)CCCCCCC(=O)OCB1C=Cc2ccccc2N1` [Compound 17], the IC50 was found to be 8.2 ± 2.5 µM against HDAC1, 16.5 ± 1 µM against HDAC4 and 15 ± 3 µM at HDAC8.

Regarding `Nc1ccccc1NC(=O)CCSCCC(=O)OCB1C=Cc2ccccc2N1` [Compound 22], the concentration for half-maximal inhibition (IC50) against HDAC1, at HDAC4 and at HDAC8 was greater than 35 µM throughout.

Consider `Nc1cc(F)ccc1NC(=O)c1ccc(CNCB2C=Cc3ccccc3N2)cc1` [Compound 26], for which the IC50 at HDAC1, at HDAC4 and at HDAC8 was greater than 35 µM throughout.

For `O=C(CCCCCCC(=O)OCB1C=Cc2ccccc2N1)NO` [Compound 16d], the concentration for half-maximal inhibition (IC50) is greater than 35 µM against HDAC1, 14.7 ± 1.7 µM against HDAC4 and greater than 35 µM against HDAC8.

As to `O=C(NO)c1cccc(NCB2C=Cc3ccccc3N2)c1` [Compound 25], the IC50 on HDAC1 was greater than 35 µM; against HDAC4 it was 17 ± 3 µM; on HDAC8, greater than 35 µM.

Regarding `O=C(CCCc1cn(CB2C=Cc3ccccc3N2)nn1)NO` [Compound 13], the values for the 50% inhibitory concentration (IC50) against HDAC1, at HDAC4 and at HDAC8 were greater than 35 µM, 23.1 ± 4.9 µM and 3.3 ± 1.7 µM, respectively.

Turning to `Nc1ccccc1NC(=O)CCCc1cn(CB2C=Cc3ccccc3N2)nn1` [Compound 10], the figures for the IC50 at HDAC1, at HDAC4 and against HDAC8 were greater than 35 µM, 8.08 ± 1.59 µM and 19 ± 5 µM, respectively.

The record behind these values is publication PMC12525784, “Novel Azaborine-Based Inhibitors of Histone Deacetylases (HDACs)” (Molecules, 2025).
